Experiments:
[1] = test system: transplanted tumor in S180 sarcoma-bearing KM mice; assay: In vivo inhibitory effect of chlorogenic acid on S180 sarcoma transplantation in KM mice (Experimental example 1); parameters: species or system mouse; key to growth volume of transplanted tumor: V = 0.52 × L × W² (long × shortest diameter²), in cm³; details: for growth volume of transplanted tumor: x ± s, n = 10; for inhibitory effect on the growth volume of transplanted tumors (in words): at different time points, compared with negative control group, chlorogenic acid systemic, local and systemic+local groups 30 mg/kg, ADM 2 mg/kg; for Tumor inhibiton rate: from tumor weight vs negative group; for Tumor weight: at termination
Description: (§1) KM mice, half male and half female, weighing 17-24 g.
S180 cell lines were mouse sarcoma cells, and suspendedly grew in DH medium, containing 20% calf serum, 1 mmol/L glutamine, 100 U·ml^−1 penicillin, and 100 μg·ml^−1 streptomycin, then cultured in 37° C. 5% CO2, saturated humidity incubator. The medium was changed every 2-3 days for passage.
S180 cells in the logarithmic growth phase were harvested, centrifuged at 1000 rpm for 5 min, washed twice, and the number of viable cells was counted by trypan blue staining. The cells were inoculated into the abdominal cavity of KM mice as soon as possible, and these mice were used as breeding mice. 2) In vivo experiment The ascites was extracted from 7 to 10 days, and the number of cells was adjusted to (about 1×10^6 cells) after dilution. The cell suspension in ascites was inoculated subcutaneously in the axillary of the left forelimb of the mice at 0.2 ml/animal.
(§2) Negative group: intraperitoneally injected, once a day, receiving an equal volume of normal saline. On the 5th day after inoculation, the tumor volume was measured (V=0.52×L (the long diameter of the transplanted tumor)×W^2 (the shortest diameter of the transplanted tumor)), and the mice were weighed every three days. The experiment was terminated when the average tumor size in the negative group was more than 1 g (the tumor volume was about […]). The mice were sacrificed by cervical vertebra luxation and weighed, the tumor was removed, and the tumor inhibitory rate was calculated. Tumor inhibitory rate %=[1−(average tumor weight in drug group/average tumor weight in negative group)]×100%.

[2] = test system: transplanted tumor in S180 sarcoma-bearing KM mice; assay: In vivo inhibitory effect of chlorogenic acid composition on S180 sarcoma transplantation in KM mice (Experimental example 2); parameters: species or system mouse; key to growth volume of transplanted tumor: tumor volume V=0.52×L×W² (long × shortest diameter²); details: for inhibitory effect on the growth volume of transplanted tumors (in words): at different time points, compared with negative control group, i.p. once a day, 30 mg/kg (ADM 2 mg/kg); for Tumor weight / Tumor inhibition rate / growth volume of transplanted tumor: intraperitoneally, once a day; for Tumor weight: at termination; for Tumor inhibition rate: from tumor weight vs negative group; for growth volume of transplanted tumor: x ± s, n = 10
Description: S180 sarcoma transplantation in KM mice
as §1
S180 cell lines were mouse sarcoma cells, and suspendedly grew in DH medium, containing 20% calf serum, 1 mmol/L glutamine, 100 U·ml^−1 penicillin, and 100 μg·ml^−1 streptomycin, then cultured in 37° C., 5% CO2, saturated humidity incubator. The medium was changed every 2-3 days for passage.
S180 cells in the logarithmic growth phase were harvested, centrifuged at 1000 rpm for 5 min, washed twice, and the number of viable cells was counted by trypan blue staining. The cells were inoculated into the abdominal cavity of KM mice as soon as possible, and these mice were used as breeding mice.
The ascites was extracted from 7 to 10 days, and the number of cells was adjusted to (about 1×10^6 cells) after dilution. The cell suspension in ascites was inoculated subcutaneously in the axillary of the left forelimb of the mice at 0.2 ml/animal. […] Coumaroylquinic acid group: intraperitoneally injected, once a day, at a dose of 30 mg·kg^−1.
Negative group: intraperitoneally injected, once a day, receiving an equal volume of normal saline.
as §2, with “On” for “Negative group: intraperitoneally injected, once a day, receiving an equal volume of normal saline. On”

[3] = systemic + local administration: i.v. once a day 30 mg/kg plus s.c. peri-lesion once every 5 days 30 mg/kg
[4] = time after inoculation 74, 30 mg/kg
[5] = time after inoculation 134 [sic], 30 mg/kg
[6] = time after inoculation printed 94, 30 mg/kg
[7] = time after inoculation printed 114, 30 mg/kg

Compound: COc1cccc2c1C(=O)c1c(O)c3c(c(O)c1C2=O)C[C@@](O)(C(=O)CO)C[C@@H]3O[C@H]1C[C@H](N)[C@H](O)[C@H](C)O1 [ADM, adriamycin, reference compound]
- growth volume of transplanted tumor ([1]; 5 d after inoculation, intraperitoneally, once a day, 2 mg/kg): 0.096 ± 0.041
- growth volume of transplanted tumor ([1]; 9 d after inoculation, intraperitoneally, once a day, 2 mg/kg): 0.199 ± 0.080
- growth volume of transplanted tumor ([1]; 11 d after inoculation, intraperitoneally, once a day, 2 mg/kg): 0.333 ± 0.159
- growth volume of transplanted tumor ([1]; 13 d after inoculation, intraperitoneally, once a day, 2 mg/kg): 0.478 ± 0.241
- inhibitory effect on the growth volume of transplanted tumors (in words) [1]: significant inhibitory effect
- Tumor inhibiton rate ([1]; intraperitoneally, once a day, 2 mg/kg, listed as Adriamycin (ADM), 2 mg/kg): 56.95%
- inhibitory effect on the growth volume of transplanted tumors (in words) [2]: significant inhibitory effect
- Tumor weight ([2]; 2 mg/kg): 1.132 ± 0.552 g
- Tumor inhibition rate ([2]; 2 mg/kg, listed as Adriamycin (ADM), 2 mg/kg): 53.38%
- growth volume of transplanted tumor ([2]; time after inoculation 74, 2 mg/kg): 0.171 ± 0.082
- growth volume of transplanted tumor ([2]; time after inoculation 134 [sic], 2 mg/kg): 0.492 ± 0.204
- growth volume of transplanted tumor ([2]; time after inoculation printed 54, 2 mg/kg): 0.116 ± 0.073
- growth volume of transplanted tumor ([2]; time after inoculation printed 114, 2 mg/kg): 0.363 ± 0.128

Compound: O=C(/C=C/c1ccc(O)c(O)c1)O[C@@H]1C[C@](O)(C(=O)O)C[C@@H](O)[C@H]1O [Chlorogenic acid]
- growth volume of transplanted tumor ([1]; 5 d after inoculation, local administration: subcutaneously into periphery of in situ lesion, once a day, 30 mg/kg): 0.152 ± 0.028
- growth volume of transplanted tumor ([1]; 5 d after inoculation, systemic administration: intravenously, once a day, 30 mg/kg): 0.141 ± 0.032
- growth volume of transplanted tumor ([1]; 7 d after inoculation, local administration: subcutaneously into periphery of in situ lesion, once a day, 30 mg/kg): 0.221 ± 0.047
- growth volume of transplanted tumor ([1]; 7 d after inoculation, systemic + local administration: i.v. once a day 30 mg/kg plus s.c. peri-lesion once every 5 days 30 mg/kg): 0.186 ± 0.065
- growth volume of transplanted tumor ([1]; 7 d after inoculation, systemic administration: intravenously, once a day, 30 mg/kg): 0.205 ± 0.061
- growth volume of transplanted tumor ([1]; 9 d after inoculation, local administration: subcutaneously into periphery of in situ lesion, once a day, 30 mg/kg): 0.311 ± 0.064
- growth volume of transplanted tumor ([1]; 9 d after inoculation, systemic + local administration: i.v. once a day 30 mg/kg plus s.c. peri-lesion once every 5 days 30 mg/kg): 0.243 ± 0.066
- growth volume of transplanted tumor ([1]; 9 d after inoculation, systemic administration: intravenously, once a day, 30 mg/kg): 0.289 ± 0.082
- growth volume of transplanted tumor ([1]; 11 d after inoculation, local administration: subcutaneously into periphery of in situ lesion, once a day, 30 mg/kg): 0.535 ± 0.078
- growth volume of transplanted tumor ([1]; 11 d after inoculation, systemic + local administration: i.v. once a day 30 mg/kg plus s.c. peri-lesion once every 5 days 30 mg/kg): 0.344 ± 0.127
- growth volume of transplanted tumor ([1]; 11 d after inoculation, systemic administration: intravenously, once a day, 30 mg/kg): 0.504 ± 0.158
- growth volume of transplanted tumor ([1]; 13 d after inoculation, local administration: subcutaneously into periphery of in situ lesion, once a day, 30 mg/kg): 0.651 ± 0.154
- growth volume of transplanted tumor ([1]; 13 d after inoculation, systemic + local administration: i.v. once a day 30 mg/kg plus s.c. peri-lesion once every 5 days 30 mg/kg): 0.446 ± 0.157
- growth volume of transplanted tumor ([1]; 13 d after inoculation, systemic administration: intravenously, once a day, 30 mg/kg): 0.593 ± 0.213
- inhibitory effect on the growth volume of transplanted tumors (in words) [1]: significant inhibitory effect
- Tumor weight ([1]; local administration: s.c. peri-lesion, once a day, 30 mg/kg): 1.324 ± 0.239 g
- Tumor inhibiton rate ([1]; local administration: s.c. peri-lesion, once a day, 30 mg/kg, 30 mg/kg): 41.36%
- Tumor weight [1, 3]: 0.957 ± 0.308 g
- Tumor inhibiton rate [1, 3]: 57.62%
- Tumor weight ([1]; systemic administration: intravenously, once a day, 30 mg/kg): 1.183 ± 0.215 g
- Tumor inhibiton rate ([1]; systemic administration: intravenously, once a day, 30 mg/kg, 30 mg/kg): 47.61%
- inhibitory effect on the growth volume compared with the systemic administration group and the local administration group (in words) ([1]; systemic+local administration group): better inhibitory effect
- inhibitory effect on the growth volume of transplanted tumors (in words) [2]: significant inhibitory effect
- Tumor inhibition rate ([2]; 30 mg/kg, 30 mg/kg): 48.64%
- growth volume of transplanted tumor [2, 4]: 0.242 ± 0.053
- growth volume of transplanted tumor [2, 5]: 0.811 ± 0.142
- growth volume of transplanted tumor [2, 6]: 0.326 ± 0.071
- growth volume of transplanted tumor [2, 7]: 0.453 ± 0.093

Compound: coumaroylquinic acid
- inhibitory effect on the growth volume of transplanted tumors (in words) [2]: didn't show inhibitory effect
- Tumor weight ([2]; 30 mg/kg): 2.303 ± 0.475 g
- Tumor inhibition rate ([2]; 30 mg/kg, 30 mg/kg): 5.15%
- Tumor inhibition rate ([2]; 30 mg/kg, listed as coumaroylquinic acid, 30 mg/kg): 5%
- growth volume of transplanted tumor [2, 4]: 0.364 ± 0.074
- growth volume of transplanted tumor [2, 5]: 1.106 ± 0.137
- growth volume of transplanted tumor ([2]; time after inoculation printed 54, 30 mg/kg): 0.209 ± 0.058
- growth volume of transplanted tumor [2, 6]: 0.573 ± 0.093
- growth volume of transplanted tumor [2, 7]: 0.898 ± 0.075

From patent publication US12150926B2 (SICHUAN JIUZHANG BIOLOGICAL SCIENCE AND TECHNOLOGY CO., LTD., priority 2018, dated 2024)
